In ChEMBL document CHEMBL1201862, “PubChem BioAssay data set” (2004):
Activity calls are given as the source filed them.

Experiments:
[1] = target: T1, Orexin/Hypocretin receptor type 1 (Homo sapiens, UniProt O43613); test: Fluorescence-based cell-based high throughput dose response assay for antagonists of the orexin 1 receptor (OX1R; HCRTR1). [Related pubchem assays (depositor defined):AID434989, AID435008, AID463079, AID485270, AID492963, AID492964, AID492965, AID493232, AID504717, AID504718]; type: functional
T1 sequence (O43613 whole entry): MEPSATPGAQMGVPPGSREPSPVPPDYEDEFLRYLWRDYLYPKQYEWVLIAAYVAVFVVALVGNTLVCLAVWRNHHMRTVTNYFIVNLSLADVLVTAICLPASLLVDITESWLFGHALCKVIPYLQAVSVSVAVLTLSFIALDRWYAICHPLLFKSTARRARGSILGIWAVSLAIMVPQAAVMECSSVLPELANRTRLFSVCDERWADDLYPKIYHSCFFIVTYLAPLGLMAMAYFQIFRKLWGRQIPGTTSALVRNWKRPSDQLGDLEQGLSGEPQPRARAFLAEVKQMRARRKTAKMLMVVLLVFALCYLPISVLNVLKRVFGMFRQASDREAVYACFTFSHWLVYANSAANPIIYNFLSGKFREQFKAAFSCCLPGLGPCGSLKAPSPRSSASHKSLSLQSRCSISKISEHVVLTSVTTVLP

[2] = target: T2, Apoptotic protease-activating factor 1 (Homo sapiens, UniProt O14727); type: functional
T2 sequence (O14727 whole entry): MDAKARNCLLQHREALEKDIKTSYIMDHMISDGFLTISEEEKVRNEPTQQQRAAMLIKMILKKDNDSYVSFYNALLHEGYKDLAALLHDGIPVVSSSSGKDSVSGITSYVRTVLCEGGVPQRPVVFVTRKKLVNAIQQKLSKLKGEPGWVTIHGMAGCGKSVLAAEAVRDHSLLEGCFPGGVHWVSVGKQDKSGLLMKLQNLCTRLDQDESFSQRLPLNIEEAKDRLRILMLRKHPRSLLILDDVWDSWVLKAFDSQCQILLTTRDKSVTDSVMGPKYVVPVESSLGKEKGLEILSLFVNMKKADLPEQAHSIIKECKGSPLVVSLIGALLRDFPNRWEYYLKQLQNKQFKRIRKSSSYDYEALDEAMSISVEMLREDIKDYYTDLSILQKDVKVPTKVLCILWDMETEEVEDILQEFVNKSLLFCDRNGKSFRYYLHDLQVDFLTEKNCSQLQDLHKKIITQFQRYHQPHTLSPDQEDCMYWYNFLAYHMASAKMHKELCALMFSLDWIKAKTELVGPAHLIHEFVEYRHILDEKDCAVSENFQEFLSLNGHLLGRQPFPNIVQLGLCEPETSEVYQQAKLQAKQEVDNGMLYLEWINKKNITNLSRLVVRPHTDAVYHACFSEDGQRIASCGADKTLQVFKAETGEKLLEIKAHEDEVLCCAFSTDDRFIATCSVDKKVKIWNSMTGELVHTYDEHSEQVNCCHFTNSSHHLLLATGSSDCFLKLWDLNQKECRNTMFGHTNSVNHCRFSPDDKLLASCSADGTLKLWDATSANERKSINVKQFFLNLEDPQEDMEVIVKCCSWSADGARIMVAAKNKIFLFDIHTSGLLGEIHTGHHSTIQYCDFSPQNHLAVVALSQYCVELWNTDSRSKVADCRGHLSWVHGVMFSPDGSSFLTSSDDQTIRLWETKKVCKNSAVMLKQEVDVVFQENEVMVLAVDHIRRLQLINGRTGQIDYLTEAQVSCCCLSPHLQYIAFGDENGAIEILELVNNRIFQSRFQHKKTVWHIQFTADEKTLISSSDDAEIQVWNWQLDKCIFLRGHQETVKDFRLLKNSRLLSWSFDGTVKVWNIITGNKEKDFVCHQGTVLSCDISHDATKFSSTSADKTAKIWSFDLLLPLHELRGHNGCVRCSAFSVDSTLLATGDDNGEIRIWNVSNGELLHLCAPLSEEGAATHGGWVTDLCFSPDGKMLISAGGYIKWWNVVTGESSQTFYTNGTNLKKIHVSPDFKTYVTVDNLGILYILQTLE

[3] = target: T3, Heat shock factor protein 1 (Mus musculus, UniProt P38532); test: enhancement of HSF1-driven luciferase signal – cell-based, NIH3T3, luminescence, dose retest, confirmation (AID 435004); type: functional;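 also: stress induced by proteasome inhibitor MG132 added 30 min after compound; luciferase reporter driven by HSF1 response element in NIH3T3 cells; actives raise luminescence as potentiators of the MG132 stress response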
T3 sequence (P38532 whole entry): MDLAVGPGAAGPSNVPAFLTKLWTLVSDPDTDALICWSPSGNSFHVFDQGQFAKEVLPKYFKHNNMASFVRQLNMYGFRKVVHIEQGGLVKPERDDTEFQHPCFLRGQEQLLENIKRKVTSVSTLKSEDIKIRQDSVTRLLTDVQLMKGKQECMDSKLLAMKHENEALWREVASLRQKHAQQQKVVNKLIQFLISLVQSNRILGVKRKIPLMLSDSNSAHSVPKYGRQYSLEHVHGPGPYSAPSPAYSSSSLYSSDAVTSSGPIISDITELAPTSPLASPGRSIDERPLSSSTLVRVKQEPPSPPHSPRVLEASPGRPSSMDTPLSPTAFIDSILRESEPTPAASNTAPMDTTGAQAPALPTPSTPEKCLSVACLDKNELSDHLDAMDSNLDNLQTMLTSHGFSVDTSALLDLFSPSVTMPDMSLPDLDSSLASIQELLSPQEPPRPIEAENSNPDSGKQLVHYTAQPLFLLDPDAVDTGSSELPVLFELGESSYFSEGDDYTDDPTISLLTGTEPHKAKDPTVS

[4] = viability loss in THP-1 monocytes – THP-1 cells, cytotoxicity control for Vif-APOBEC3G degradation inhibitor project, dose response (AID 1117359); type: functional; conditions: THP-1
Aurora kinase B = Aurora kinase B (Homo sapiens, UniProt Q96GD4); type: functional
[5] = target: Protein kinase C iota type (Homo sapiens, UniProt P41743); type: functional;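 also: measured within a kinome-wide kinase panel, PRKCI as panel member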
[6] = target: Mitogen-activated protein kinase 12 (Homo sapiens, UniProt P53778); type: functional;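 also: measured as one member of a kinome-wide kinase profiling panel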
[7] = target: Mitogen-activated protein kinase 9 (Homo sapiens, UniProt P45984); type: functional;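 also: value from a kinome panel profiling assay, MAPK9 panel entry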
[8] = target: Tyrosine-protein kinase Lyn (Homo sapiens, UniProt P07948); type: functional;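 also: lyn as one member of a kinase panel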
[9] = target: Receptor tyrosine-protein kinase erbB-4 (Homo sapiens, UniProt Q15303); type: functional;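 also: ERBB4 member of a kinome-wide kinase profiling panel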
[10] = target: Dual specificity protein phosphatase 3 (Homo sapiens, UniProt P51452); test: VHR1 phosphatase inhibitors, primary screen, biochemical, absorbance, uHTS (AID 1654)
Sequence of Dual specificity protein phosphatase 3 (P51452 whole entry): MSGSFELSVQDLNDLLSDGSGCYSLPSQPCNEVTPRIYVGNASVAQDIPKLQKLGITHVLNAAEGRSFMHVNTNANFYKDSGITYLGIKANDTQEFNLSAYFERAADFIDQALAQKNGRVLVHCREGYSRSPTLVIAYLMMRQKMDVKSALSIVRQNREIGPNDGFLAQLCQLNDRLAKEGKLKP

Sequence of Tyrosine-protein kinase Lyn (P07948 whole entry): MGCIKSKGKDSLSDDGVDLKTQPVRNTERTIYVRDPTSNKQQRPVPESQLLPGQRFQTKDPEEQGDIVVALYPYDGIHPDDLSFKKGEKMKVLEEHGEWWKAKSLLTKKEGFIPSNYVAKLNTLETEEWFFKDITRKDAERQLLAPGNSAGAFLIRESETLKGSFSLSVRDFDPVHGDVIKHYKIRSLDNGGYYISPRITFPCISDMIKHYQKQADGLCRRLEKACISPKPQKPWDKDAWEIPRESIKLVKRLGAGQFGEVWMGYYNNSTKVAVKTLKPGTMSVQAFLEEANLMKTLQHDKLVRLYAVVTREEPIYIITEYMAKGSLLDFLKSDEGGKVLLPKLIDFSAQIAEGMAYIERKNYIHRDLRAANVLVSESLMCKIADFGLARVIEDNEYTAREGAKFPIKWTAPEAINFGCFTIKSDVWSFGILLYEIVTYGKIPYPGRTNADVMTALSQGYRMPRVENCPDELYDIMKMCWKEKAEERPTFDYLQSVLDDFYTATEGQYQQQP
Sequence of Aurora kinase B (Q96GD4 whole entry): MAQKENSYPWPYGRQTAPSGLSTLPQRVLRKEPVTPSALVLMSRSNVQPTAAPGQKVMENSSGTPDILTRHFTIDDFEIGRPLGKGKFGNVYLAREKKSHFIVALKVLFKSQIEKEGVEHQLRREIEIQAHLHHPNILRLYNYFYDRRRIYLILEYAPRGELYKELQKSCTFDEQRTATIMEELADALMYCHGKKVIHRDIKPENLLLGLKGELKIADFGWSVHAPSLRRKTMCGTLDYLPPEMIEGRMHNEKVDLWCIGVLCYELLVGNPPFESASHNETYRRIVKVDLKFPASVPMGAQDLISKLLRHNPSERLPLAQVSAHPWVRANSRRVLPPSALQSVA
Sequence of Mitogen-activated protein kinase 9 (P45984 whole entry): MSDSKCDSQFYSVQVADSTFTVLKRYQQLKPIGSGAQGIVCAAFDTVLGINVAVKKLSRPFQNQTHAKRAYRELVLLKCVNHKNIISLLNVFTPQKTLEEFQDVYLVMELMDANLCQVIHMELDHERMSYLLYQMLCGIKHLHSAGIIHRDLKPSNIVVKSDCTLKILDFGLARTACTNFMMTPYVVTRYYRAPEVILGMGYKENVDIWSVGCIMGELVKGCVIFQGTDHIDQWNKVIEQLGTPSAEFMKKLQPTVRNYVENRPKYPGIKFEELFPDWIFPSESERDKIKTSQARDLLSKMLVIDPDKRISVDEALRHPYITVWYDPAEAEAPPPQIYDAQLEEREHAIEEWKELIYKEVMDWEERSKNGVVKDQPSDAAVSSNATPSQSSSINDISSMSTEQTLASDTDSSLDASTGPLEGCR
Sequence of Receptor tyrosine-protein kinase erbB-4 (Q15303 whole entry): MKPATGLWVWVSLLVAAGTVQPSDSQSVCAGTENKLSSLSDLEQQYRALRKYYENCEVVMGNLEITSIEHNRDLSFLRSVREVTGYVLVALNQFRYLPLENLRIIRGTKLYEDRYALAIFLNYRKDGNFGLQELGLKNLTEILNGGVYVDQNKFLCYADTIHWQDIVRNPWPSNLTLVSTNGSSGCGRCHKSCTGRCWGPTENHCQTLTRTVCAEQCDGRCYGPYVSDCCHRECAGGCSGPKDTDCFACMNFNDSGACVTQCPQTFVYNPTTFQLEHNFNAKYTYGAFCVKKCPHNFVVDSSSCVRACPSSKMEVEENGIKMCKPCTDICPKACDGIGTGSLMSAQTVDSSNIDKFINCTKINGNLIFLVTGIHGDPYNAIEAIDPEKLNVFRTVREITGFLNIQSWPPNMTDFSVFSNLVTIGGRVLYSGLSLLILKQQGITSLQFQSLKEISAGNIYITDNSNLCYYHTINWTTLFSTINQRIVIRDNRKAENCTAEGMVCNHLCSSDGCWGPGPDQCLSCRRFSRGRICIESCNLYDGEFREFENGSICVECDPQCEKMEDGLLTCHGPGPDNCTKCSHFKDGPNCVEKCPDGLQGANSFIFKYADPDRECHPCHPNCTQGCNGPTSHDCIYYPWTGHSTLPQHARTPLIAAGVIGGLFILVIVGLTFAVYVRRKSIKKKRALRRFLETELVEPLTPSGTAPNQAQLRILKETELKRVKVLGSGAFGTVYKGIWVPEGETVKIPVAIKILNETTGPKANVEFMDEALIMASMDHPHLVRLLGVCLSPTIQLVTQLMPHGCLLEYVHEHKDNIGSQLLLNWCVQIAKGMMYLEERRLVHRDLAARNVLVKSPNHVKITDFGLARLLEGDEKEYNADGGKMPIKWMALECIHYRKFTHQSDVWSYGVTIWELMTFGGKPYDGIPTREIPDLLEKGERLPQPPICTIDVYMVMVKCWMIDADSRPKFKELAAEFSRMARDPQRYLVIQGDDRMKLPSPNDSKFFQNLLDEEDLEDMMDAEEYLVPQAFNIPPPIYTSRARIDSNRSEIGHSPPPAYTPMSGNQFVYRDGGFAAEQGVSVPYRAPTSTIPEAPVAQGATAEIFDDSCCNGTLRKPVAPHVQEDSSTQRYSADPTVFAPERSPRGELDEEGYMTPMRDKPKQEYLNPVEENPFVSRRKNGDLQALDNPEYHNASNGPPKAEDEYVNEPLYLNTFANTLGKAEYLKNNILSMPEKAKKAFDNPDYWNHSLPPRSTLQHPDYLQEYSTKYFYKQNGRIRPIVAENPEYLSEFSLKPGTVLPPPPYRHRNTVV
Sequence of Protein kinase C iota type (P41743 whole entry): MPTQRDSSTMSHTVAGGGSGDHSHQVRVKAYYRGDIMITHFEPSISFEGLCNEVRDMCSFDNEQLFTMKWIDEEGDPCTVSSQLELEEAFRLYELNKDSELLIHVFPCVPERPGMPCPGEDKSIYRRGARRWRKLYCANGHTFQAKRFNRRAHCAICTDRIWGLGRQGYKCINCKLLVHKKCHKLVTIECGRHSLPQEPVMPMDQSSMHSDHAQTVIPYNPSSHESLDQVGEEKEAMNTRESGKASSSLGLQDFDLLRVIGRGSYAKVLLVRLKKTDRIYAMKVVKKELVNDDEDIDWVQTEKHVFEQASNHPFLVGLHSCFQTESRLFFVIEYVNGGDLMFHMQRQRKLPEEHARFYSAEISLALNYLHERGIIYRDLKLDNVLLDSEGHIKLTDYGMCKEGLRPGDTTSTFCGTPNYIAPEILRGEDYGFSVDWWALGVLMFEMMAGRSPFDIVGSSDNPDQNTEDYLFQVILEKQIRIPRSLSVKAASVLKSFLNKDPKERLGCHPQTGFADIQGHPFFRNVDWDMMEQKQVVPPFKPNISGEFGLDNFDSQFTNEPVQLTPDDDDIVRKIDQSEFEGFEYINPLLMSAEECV
Sequence of Mitogen-activated protein kinase 12 (P53778 whole entry): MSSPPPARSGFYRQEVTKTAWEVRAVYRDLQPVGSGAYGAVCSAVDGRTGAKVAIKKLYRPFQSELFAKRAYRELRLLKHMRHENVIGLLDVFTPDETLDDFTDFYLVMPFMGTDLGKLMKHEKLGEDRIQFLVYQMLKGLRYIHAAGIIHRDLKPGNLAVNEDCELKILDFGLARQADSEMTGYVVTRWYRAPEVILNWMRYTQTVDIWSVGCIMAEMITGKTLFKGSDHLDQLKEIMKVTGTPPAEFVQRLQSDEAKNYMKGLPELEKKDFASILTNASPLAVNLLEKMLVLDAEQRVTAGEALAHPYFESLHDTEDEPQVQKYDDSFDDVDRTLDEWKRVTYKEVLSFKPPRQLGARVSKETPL

For `CN(C)c1ccc(-c2nnc(-c3cccs3)o2)cc1`, the IC50 [1] was > 49.7 µM (inactive).

For `CCOC(=O)C(C(=O)OCC)c1cc(Br)c2noc3c2c1C(=O)c1ccccc1-3`, the IC50 [2] was 47.7 µM (active), the EC50 [3] was > 260 µM (inconclusive) and the CC50 [4] was 19.2 µM (active).

For `COc1ccc(C(=O)Nc2n[nH]c3ccc(-c4cn(Cc5ccccc5)nn4)cc23)cc1OC`, the Ki (Aurora kinase B) was 0.2 µM (active), the Ki [5] was 3.98 µM (active) and the Ki [6] was 0.631 µM (active). For the same compound, the Ki [7] was 0.251 µM (active), the Ki [8] was 0.501 µM (active) and the Ki [9] was > 3.98 µM (inactive).

With `CS(=O)(=O)c1ccc2c(c1)SC1=NC(=O)/C(=C/c3ccc(O)c(O)c3)C(=N)N12` the IC50 [10] was 10.4 µM (active).
